Target: LSD1 (Homo sapiens (Human), UniProt O60341)
Assay: LSD1 inhibitory activity on an enzyme level, AlphaScreen method
Type: biochemical
Details: in vitro
Description: This experiment was carried out to test the in vitro inhibitory activity of the compounds of the present disclosure against LSD1.
Experimental steps and a method: In this experiment, the in vitro inhibitory activity of the compounds of the present disclosure against LSD1 on an enzyme level was tested by using an AlphaScreen method. The experimental steps are described as follows: • a) preparation of a 1× buffer: • preparing a 1× buffer (improved trihydroxymethylaminomethane buffer); • b) continuous dilution of the compounds: • transferring the compounds of the present disclosure to a porous plate by using Echo at a final DMSO concentration of 1%; • c) preparation of an enzyme solution: • preparing an enzyme solution in the 1× buffer; • d) preparation of a substrate solution: • adding polypeptide to the 1× buffer to prepare a substrate solution; • e) transferring 5 μL of the enzyme solution or the 1× buffer to the porous plate; • f) conducting incubation at room temperature for 15 min; • g) adding 5 μL of the substrate solution to each well to induce a reaction; • h) conducting incubation at room temperature for 40 min; • i) preparing a 1× Alphalisa buffer; • j) preparation of a 1× Alphalisa buffer solution of receptors and donors: • adding 15 μL of a receptor and donor solution in dark light environment, and conducting incubation at room temperature for 60 min; • k) reading an endpoint in an EnSpire Alpha mode; and • l) data processing: • calculating an inhibitory value according to an equation 1:
Inh %=(Max−Signal)/(Max−Min)*100; and equation 1: • calculating an IC50 value by using XL-Fit according to an equation 2:
Y=Bottom+(Top-Bottom)/(1+(IC50/X)[…]), equation 2: • where Y indicates the inhibitory rate, and X indicates the concentration of a compound.

IC50 | Compound
2.5 nM | CC(C)(O)Cc1ccc(-c2c(-c3ccc(C#N)c(F)c3)nc3c(N4CCC[C@@H](N)C4)nccn23)c(F)c1 [Compound 22, (R)-4-(8-(3-aminopiperidin-1-yl)-3-(2-fluoro-4-(2-hydroxy-2-methylpropyl)phenyl)imidazo[1,2-a]pyrazin-2-yl)-2-fluorobenzonitrile]
2.3 nM | CC(C)(O)Cn1cc2cc(-c3c(-c4ccc(C#N)c(F)c4)nc4c(N5CCC[C@@H](N)C5)nccn34)c(F)cc2n1 [Compound 21, (R)-4-(8-(3-aminopiperidin-1-yl)-3-(6-fluoro-2-(2-hydroxy-2-methylpropyl)-2H-indazol-5-yl)imidazo[1,2-a]pyrazin-2-yl)-2-fluorobenzonitrile]
56 nM | COc1ccc(-c2c(-c3ccc(C#N)c(F)c3)nc3c(NCC4CCNC4)nccn23)cc1F (centres unmarked) [Compound 13, 2-fluoro-4-(3-(3-fluoro-4-methoxyphenyl)-8-((pyrrolidin-3-ylmethyl)amino)imidazo[1,2-a]pyrazin-2-yl)benzonitrile]
11 nM | COc1ccc(-c2c(-c3ccc(C#N)c(F)c3)nc3c(N[C@@H]4CC[C@@H](N)C4)nccn23)cc1F (relative stereo) [Compound 15, trans-4-(8-(((1R,3R)-3-aminocyclopentyl)amino)-3-(3-fluoro-4-methoxyphenyl)imidazo[1,2-a]pyrazin-2-yl)-2-fluorobenzonitrile]
4.4 nM | CC(C)(O)Cn1nnc2cc(-c3c(-c4ccc(C#N)c(F)c4)nc4c(N5CCC[C@H](N)C5)nccn34)c(F)cc21 [Compound 23, (S)-4-(8-(3-aminopiperidin-1-yl)-3-(6-fluoro-1-(2-hydroxy-2-methylpropyl)-1H-benzo[d][1,2,3]triazol-5-yl)imidazo[1,2-a]pyrazin-2-yl)-2-fluorobenzonitrile]
45 nM | COc1ccc(-c2c(-c3ccc(C#N)c(F)c3)nc3c(NCC4CCCN4)nccn23)cc1F (centres unmarked) [Compound 6, 2-fluoro-4-(3-(3-fluoro-4-methoxyphenyl)-8-((pyrrolidin-2-ylmethyl)amino)imidazo[1,2-a]pyrazin-2-yl)benzonitrile]
0.88 nM | CN1CCOc2cc(-c3c(-c4ccc(C#N)c(F)c4)nc4c(N5CCC[C@@H](N)C5)nccn34)ccc21 [Compound 9, (R)-4-(8-(3-aminopiperidin-1-yl)-3-(4-methyll-3,4-dihydro-2H-benzo [b][1,4]oxazin-7-yl)imidazo[1,2-a]pyrazin-2-yl)-2-fluorobenzonitrile]
5.5 nM | CC(C)(O)Cn1nnc2cc(-c3c(-c4ccc(C#N)c(F)c4)nc4c(N5[C@@H]6CC[C@H]5C[C@@H](NC(=O)OC(C)(C)C)C6)nccn34)c(F)cc21 [Compound 28, ((1R,3r,5S)-8-(2-(4-cyano-3-fluorophenyl)-3-(6-fluoro-1-(2-hydroxy-2-methylpropyl)-1H-benzo[d][1,2,3]triazol-5-yl)imidazo[1,2-a]pyrazin-8-yl)-8-azabicyclo[3.2.1]octane-3-yl)carbamate]
1.3 nM | COc1ccc(-c2c(-c3ccc(C#N)c(F)c3)nc3c(N4CCC[C@@H](N)C4)nccn23)cc1F [Compound 2, (R)-4-(8-(3-aminopiperidin-1-yl)-3-(3-fluoro-4-methoxyphenyl)imidazo [1,2-a]pyrazin-2-yl)-2-fluorobenzonitrile]
6.3 nM | Cn1cc2cc(-c3c(-c4ccc(C#N)c(F)c4)nc4c(N5CCC[C@@H](N)C5)nccn34)ccc2n1 [Compound 17, (R)-4-(8-(3-aminopiperidin-1-yl)-3-(2-methyll-2H-indazol-5-yl)imidazo [1,2-a]pyrazin-2-yl)-2-fluorobenzonitrile]

Further lines, the compound ahead of its results:

Compound | IC50
COc1ccc(-c2c(-c3ccc(C#N)c(F)c3)nc3c(NC4CCCNC4)nccn23)cc1F (centres unmarked) [Compound 7, 2-fluoro-4-(3-(3-fluoro-4-methoxyphenyl)-8-(piperidin-3-ylamino)imidazo[1,2-a]pyrazin-2-yl)benzonitrile] | 12 nM
N#Cc1ccc(-c2nc3c(N4CCC[C@@H](N)C4)nccn3c2-c2cnn(CC(F)(F)F)c2)cc1F [Compound 10, (R)-4-(8-(3-aminopiperidin-1-yl)-3-(1-(2,2,2-trifluoroethyl)-1H-pyrazol-4-yl)imidazo[1,2-a]pyrazin-2-yl)-2-fluorobenzonitrile] | 7.5 nM
COc1ccc(-c2c(-c3ccc(C#N)c(F)c3)nc3c(N4CCC(N)CC4)nccn23)cc1F [Compound 1, 4-(8-(4-aminopiperidin-1-yl)-3-(3-fluoro-4-methoxyphenyl)imidazo [1,2-a]pyrazin-2-yl)-2-fluorobenzonitrile] | 7.4 nM
4-(7-(4-aminopiperidin-1-yl)-3-(3-fluoro-4-methoxyphenyl)imidazo [1,5-a]pyrazin-2-yl)-2-fluorobenzonitrile [Compound 3] | 2.6 nM
COc1ccc(-c2c(-c3ccc(C#N)c(F)c3)nc3c(NC4CCNC4)nccn23)cc1F (centres unmarked) [Compound 16, 2-fluoro-4-(3-(3-fluoro-4-methoxyphenyl)-8-(pyrrolidin-3-ylamino)imidazo[1,2-a]pyrazin-2-yl)benzonitrile] | 15 nM
Cn1ncc2cc(-c3c(-c4ccc(C#N)c(F)c4)nc4c(N5CCC[C@@H](N)C5)nccn34)ccc21 [Compound 8, (R)-4-(8-(3-aminopiperidin-1-yl)-3-(1-methyll-1H-indazol-5-yl)imidazo [1,2-a]pyrazin-2-yl)-2-fluorobenzonitrile] | 1.7 nM
(R)4-(7-(3-aminopiperidin-1-yl)-3-(3-fluoro-4-methoxyphenyl)imidazo [1,5-a]pyrazin-2-yl)-2-fluorobenzonitrile [Compound 4] | 1 nM
Cn1nnc2cc(-c3c(-c4ccc(C#N)c(F)c4)nc4c(N5CCC[C@@H](N)C5)nccn34)c(F)cc21 [Compound 30, (R)-4-(8-(3-aminopiperidin-1-yl)-3-(6-fluoro-1-methyl-1H-benzo[d][1,2,3]triazol-5-yl)imidazo[1,2-a]pyrazin-2-yl)-2-fluorobenzonitrile] | 1 nM
CCC(O)(CC)Cn1nnc2cc(-c3c(-c4ccc(C#N)c(F)c4)nc4c(N5CCC[C@H](N)C5)nccn34)c(F)cc21 [Compound 26, (S)-4-(8-(3-aminopiperidin-1-yl)-3-(1-(2-ethyl-2-hydroxybutyl)-6-fluoro-1H-benzo[d][1,2,3]triazol-5-yl)imidazo[1,2-a]pyrazin-2-yl)-2-fluorobenzonitrile] | 0.7 nM
COc1ccc(-c2c(-c3ccc(C#N)c(F)c3)nc3c(N[C@@H]4CC[C@H](N)C4)nccn23)cc1F (relative stereo) [Compound 14, cis-4-(8-(((1R,3S)-3-aminocyclopentyl)amino)-3-(3-fluoro-4-methoxyphenyl)imidazo[1,2-a]pyrazin-2-yl)-2-fluorobenzonitrile] | 37 nM
CC(C)(O)Cn1ncc2cc(-c3c(-c4ccc(C#N)c(F)c4)nc4c(N5CCC[C@@H](N)C5)nccn34)c(F)cc21 [Compound 19, (R)-4-(8-(3-aminopiperidin-1-yl)-3-(6-fluoro-1-(2-hydroxy-2-methylpropyl)-1H-indazol-5-yl)imidazo[1,2-a]pyrazin-2-yl)-2-fluorobenzonitrile] | 0.71 nM
CC(C)(O)Cn1ncc2cc(-c3c(-c4ccc(C#N)c(F)c4)nc4c(N5CCC[C@@H](N)C5)nccn34)ccc21 [Compound 11, (R)-4-(8-(3-aminopiperidin-1-yl)-3-(1-(2-hydroxy-2-methylpropyl)-1H-indazol-5-yl)imidazo[1,2-a]pyrazin-2-yl)-2-fluorobenzonitrile] | 0.97 nM
Cn1ncc2cc(-c3c(-c4ccc(C#N)c(F)c4)nc4c(N5CCC[C@@H](N)C5)nccn34)ccc21 [Compound 5, (R)-4-(8-(3-aminopiperidin-1-yl)-3-(1-methyll-1H-indazol-5-yl)imidazo [1,2-a]pyrazin-2-yl)-2-fluorobenzonitrile] | 2.3 nM

Source: patent US20230399332A1, “IMIDAZO[1,2-a]PYRAZINE OR PYRAZOLO[1,5-a]PYRIMIDINE DERIVATIVE AND USE THEREOF” (TENCENT TECHNOLOGY (SHENZHEN) COMPANY LIMITED, priority 2022, published 2023)
